From patent publication US8722909B2, “Antiprotozoal compound derived from coelenterata” (Waseda University, priority 2010, dated 2014)
≈ marks a conversion by molar mass, not a printed value.

Assays:
Format in all cases: cell-based
[1] = test system: EGFP transgenic Leishmania protozoa (LaEGFP); test: microbe, parasite or virus in culture
Description: EGFP transgenic Leishmania protozoa (LaEGFP, Okuno T et al., Exp. Anim, 52: 109 (2003)) 1×10^5 cells were inoculated into a 96-well plate, and a sample diluted with a culture medium was then added and incubated for 72 hours. Subsequently, the fluorescence intensity within each well was measured using a fluorescence plate reader, and the antileishmanial activity of the test sample was calculated.

[2] = test system: Trypanosoma congolense (bloodstream form); test: Antitrypanosomal activity test (TetraColor ONE, 48 hours)
Description: Trypanosoma congolense (bloodstream form) 2×10^5 cells were inoculated into a 96-well plate, and a sample diluted with a culture medium was then added and cultured for 48 hours. Subsequently, 10 μL of TetraColor ONE (Seikagaku Biobusiness Corporation) was added to each well to measure the viable cell count, and after 4 hours, the absorbance at 450 nm was measured.

[3] = test system: mouse lymphoma-derived P388 cells; test: Cytotoxicity test (MTT), P388; settings: isolated compound, 72 hours, read-out: IC50 value against P388 cells
Description: (§1) A suspension of human cervical cancer-derived HeLa cells and mouse lymphoma-derived P388 cells (1×10^4 cells/mL) 200 μL was dispended into each well of rows A to H, columns 1 to 11 of a 96-well microplate, and the suspension was then incubated for 24 hours at 37° C. Subsequently, 2 μL of a methanol solution of the sample (1 mg/mL) was added to each well of row A, columns 1 to 10 of the 96-well microplate, and 2 μL of adriamycin (1 mg/mL) was added to the well of row A, column 11 as a positive control. Only the culture medium 200 μL was added to each well of rows A to D, column 12, and 200 μL of the aforementioned suspension of 1×10^4 cells/mL was added to each well of rows E to H, column 12. Using a multi-channel pipette, 50 μL of the culture medium was aspirated from the well of each column of row A and added to the well of the corresponding column of row B, and then 50 μL of the culture medium was aspirated from the well of each column of row B and added to the well of the corresponding column of row C. […] Following culturing for 72 hours, 50 μL of 1 mg/mL PBS solution of MTT (3-[4,5-dimethylthiazol-2-yl]-2,5-diphenyl tetrazolium bromide) was added to each well. […] For each well, the absorbance of the colorimetric substrate dissolved in the DMSO was measured using a multi-well plate reader, and the concentration at which half the cells were inhibited (IC50) was determined. […]

[4] = test system: human cervical cancer-derived HeLa cells; test: Cytotoxicity test (MTT), HeLa; settings: isolated compound, 72 hours, read-out: IC50 value against HeLa cells
Description: as §1

[5] = test system: Plasmodium falciparum K-1 strain; test: Antiplasmodial activity test (SYBR GREEN, 48 hours); settings: read-out: IC50 value against the Plasmodium falciparum K-1 strain
Description: Synchronized 0.5% ring stage Plasmodium falciparum K-1 strain 90 μL was added to each well of a 96-well plate, and a sample diluted with a culture medium was then added and incubated for 48 hours. Subsequently, 100 μL of a mixed solution prepared by adding 0.2 μL of SYBR GREEN to 1 mL of lysis buffer (20 mM Tris (pH 7.5), 5 mM EDTA, 0.008% (wt/vol) saponin, 0.08% (vol/vol) Triton X-100) was added to each well, and stirred with a vortex mixer. Following standing for 1 hour in a dark place, the fluorescence was measured with a fluorescence plate reader, using an excitation wavelength of 485 nm and a detection wavelength of 530 nm.

[6] = test system: human promyelocytic leukemia-derived HL-60 cells; test: Cytotoxicity test (MTT), HL-60; settings: isolated compound, 72 hours, read-out: IC50 value against HL-60 cells
Description: A suspension of human cervical cancer-derived HeLa cells, human promyelocytic leukemia-derived HL-60 cells, and mouse lymphoma-derived P388 cells (1×10^4 cells/mL) 200 μL was dispended into each well of rows A to H, columns 1 to 11 of a 96-well microplate, and the suspension was then incubated for 24 hours at 37° C. Subsequently, 2 μL of a methanol solution of the sample (1 mg/mL) was added to each well of row A, columns 1 to 10 of the 96-well microplate, and 2 μL of adriamycin (1 mg/mL) was added to the well of row A, column 11 as a positive control. Only the culture medium 200 μL was added to each well of rows A to D, column 12, and 200 μL of the aforementioned suspension of 1×10^4 cells/mL was added to each well of rows E to H, column 12. Using a multi-channel pipette, 50 μL of the culture medium was aspirated from the well of each column of row A and added to the well of the corresponding column of row B, and then 50 μL of the culture medium was aspirated from the well of each column of row B and added to the well of the corresponding column of row C. […] For each well, the absorbance of the colorimetric substrate dissolved in the DMSO was measured using a multi-well plate reader, and the concentration at which half the cells were inhibited (IC50) was determined.

C[C@@H]1[C@H](O)[C@@H](C)/C=C/C=C/C=C/C=C/C=C/C=C/C=C/[C@H](O[C@@H]2O[C@H](C)[C@@H](O)[C@H](N)[C@@H]2O)C[C@@H]2O[C@](O)(C[C@@H](O)C[C@@H](O)[C@H](O)CC[C@@H](O)C[C@@H](O)CC(=O)O[C@H]1C)C[C@H](O)[C@H]2C(=O)O [amphotericin B, reference compound]
IC50 value against the LaEGFP (antileishmanial activity) ([1]; LaEGFP, 72 hours): approximately 20 ng/mL | IC50 value against the T. congolense [2]: 0.811 µg/mL (≈ 0.878 µM)

CC(=O)O/C=C1\CCC/C(C=O)=C\C[C@@H]2C(C(=O)CC=C(C)C)=CO[C@H](OC(C)=O)[C@@H]12 [cristaxenicin A]
IC50 [3]: 0.89 µg/mL (≈ 2.07 µM) | IC50 [4]: 2 µg/mL (≈ 4.65 µM) | IC50 [5]: 4.6 µg/mL (≈ 10.7 µM) | IC50 ([1]; Leishmania, 72 h, read-out: IC50 value against the LaEGFP (antileishmanial activity)): 0.036 µg/mL (≈ 0.0836 µM) | IC50 ([2]; Trypanosoma congolense, read-out: IC50 value against the T. congolense): 0.107 µg/mL (≈ 0.249 µM) | IC50 [6]: 0.727 µg/mL (≈ 1.69 µM)

cristaxenicin A
antiprotozoal activity of HPLC peak fractions (in words) ([1]; reversed phase HPLC peak fractions): exhibited antiprotozoal activity
